From patent US20060094676A1, “Compositions and methods for treating cancer using compositions comprising an inhibitor of endothelin receptor activity” (priority 2004, published 2006) come the findings set out here.

Common to all, as to format: cell-based, human
One assay relates to GRAVIN. The assay is described as follows: Real-time RT-PCR of Gravin transcripts. Particulars: melanoma cell lines treated with BQ788. As for the experimental part:
Equal amounts of RNA from cells that were treated with BQ788 for 3 days were subjected to real-time RT-PCR analysis for the detection VEGF (A), HIF-1α (B) and Gravin (C) transcripts. Differences in expression levels are shown as x fold change and are statistically significant (p<0.05) unless a column in marked as non significant (N.S.). Sections of two representative tumors derived from a human melanoma cell line grown in nude mice and injected either with vehicle (D) or BQ788 (E) were stained with anti CD-31 to highlight blood vessels (brown staining, Lahav et al, 1999).
RNA was prepared from the different cell lines in different culture conditions using SV total RNA isolation kit (Promega) according to the manufacturer's protocol. For each sample RNA concentration was determined using the total RNA nano procedure of an Agilent bioanalyzer. A stock of SK-MEL-28 RNA aliquots was prepared containing 10, 20, 50, 100, 200, 500 and 1000 ng/12 μl for use as a standard curve and kept in −80° C. For the experimental unknown samples, a stock of 100 ng/12 μl RNA aliquots from each cell line and condition was prepared and stored at −80° C. […] A standard curve of Ct versus RNA quantity was established and accordingly the Ct in the unknown samples was correlated to quantity of transcript. […]

The test system of the next assay is caspase 6. The assay is described as follows: Mch2/Caspase-6 colorimetric protease assay on cell lysates. Particulars: SK-MEL-28; after 3 days of treatment with BQ788. As for the experimental part:
Equal amounts of RNA from cells that were treated with BQ788 for 3 days were subjected to real-time RT-PCR analysis for the detection of BCL-2A1 (A) and ADP ribosyltransferase 3 (B) transcripts. Total amounts are represented in A while relative (to control) values are shown in B. Differences in expression levels are shown as x fold decrease and are statistically significant (p<0.05) unless a column in marked as non significant (N.S.). Lysates of BQ788 treated cells and controls were subjected to an apoptosis ELISA detection test (C). SK-MEL-28 cells were cultured with pan caspase inhibitor (D) or with caspase 6 inhibitor (E) with or without BQ788 for 2.5 days. […] SK-MEL-28 cells were cultured for 3 days in the presence of BQ788 and assayed for caspase 6 activity (F). […]
Caspase 3 inhibitor I (inhibits caspases 3, 6, 7, 8 & 10), cell-permeable (Calbiochem) and Caspase 6 inhibitor II, Cell-Permeable (Calbiochem) were dissolved in DMSO. […] Cell viability was measured using MTS solution in parallel experiments at 5 different time points. Caspase 6 activity was measured using Mch2/Caspase-6 Colorimetric Protease Assay Kit according to the manufacturer's instructions. […] Caspase 6 activity was measured in 4 samples containing equal amounts of protein from each condition by spectrophotometric detection of a chromophore following its release from the labeled caspase 6 substrate VEID. […]

The subject of the next assay is BCL-2A1. The experiment in a line: Real-time RT-PCR of BCL-2A1 transcripts. Particulars: BQ788 3 days. As for the experimental part:
Equal amounts of RNA from cells that were treated with BQ788 for 3 days were subjected to real-time RT-PCR analysis for the detection of BCL-2A1 (A) and ADP ribosyltransferase 3 (B) transcripts. Total amounts are represented in A while relative (to control) values are shown in B. Differences in expression levels are shown as x fold decrease and are statistically significant (p<0.05) unless a column in marked as non significant (N.S.). Lysates of BQ788 treated cells and controls were subjected to an apoptosis ELISA detection test (C). SK-MEL-28 cells were cultured with pan caspase inhibitor (D) or with caspase 6 inhibitor (E) with or without BQ788 for 2.5 days. […] SK-MEL-28 cells were cultured for 3 days in the presence of BQ788 and assayed for caspase 6 activity (F). The difference between the columns is statistically significant (p<0.05).
RNA was prepared from the different cell lines in different culture conditions using SV total RNA isolation kit (Promega) according to the manufacturer's protocol. For each sample RNA concentration was determined using the total RNA nano procedure of an Agilent bioanalyzer. A stock of SK-MEL-28 RNA aliquots was prepared containing 10, 20, 50, 100, 200, 500 and 1000 ng/12 μl for use as a standard curve and kept in −80° C. For the experimental unknown samples, a stock of 100 ng/12 μl RNA aliquots from each cell line and condition was prepared and stored at −80° C. For each real-time experiment one series of standard curve and unknown experimental series of aliquots was put on ice for use. Complementary DNA was prepared by adding to each tube 0.5 μl of random hexamers (Promega) and 1 μl of 10 mM dNTP mix (Promega) and incubating at 65° C. for 5 min. 4 μl of 5× M-MLV buffer (Promega), 1 μl of the RNase inhibitor RNasin (Promega) and 1 μl of M-MLV RT RNase H (Promega) were then added and the solution was incubated at 42° C. for 50 min followed by 15 min at 70° C. For real time reactions 15 μl of each cDNA sample were transferred to 3 wells in a 386 well plate. To each well we added 10 μl of TaqMan universal PCR master mix (Applied Biosystems), 1 μl of primers+probe mix (Assays-on-Demand from Applied Biosystems: EDNRB Hs00240747, BCL-2A1 Hs00187845, PARP-3 Hs00154151, VEGF Hs00173626, HIF-1α Hs00153153 and Gravin Hs00374507) and 4 μl of nuclease free water (Promega). […] A standard curve of Ct versus RNA quantity was established and accordingly the Ct in the unknown samples was correlated to quantity of transcript.
If the observed reduction in BCL-2A1 and PARP-3 expression is implicated in ETRB blockade-dependent cell death, one would expect the more resistant cell lines to display less reduction in BCL-2A1 and PARP-3 levels. To test this possibility and to validate our microarray results, we used quantitative real-time PCR.

For `CCCC[C@@H](NC(=O)[C@@H](Cc1cn(C(=O)OC)c2ccccc12)NC(=O)[C@H](CC(C)(C)C)NC(=O)N1[C@H](C)CCC[C@@H]1C)C(=O)O` [BQ788, N-cis-2,6-dimethylpiperidinocarbonyl-L-γ-methylleucyl-D-1-methoxycarbonyltrptophanyl-D-norleucine], the GRAVIN expression entry with GRAVIN is listed as “down-regulated”. Moreover, the “caspase 6 activation” value in the assay on caspase 6 is reported as “could be detected”. Besides, the “decrease in BCL-2A1 levels” value is given as 1.8 fold with BCL-2A1 (Cut-met line), 2.9 fold in the assay with BCL-2A1 (LN-met) and 5.7 fold in the assay on BCL-2A1 (SK-MEL-28). In addition, the BCL-2A1 expression change result with BCL-2A1 (primary melanoma cells) is given as “did not change”.
